Source: PubChem BioAssay (NCI)
Where “and” joins values, the source holds several entries; their conditions need not be identical. Equal entries are not always repeated.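 Each compound was tested at five concentrations against cells in 96-well plates for 48 hours. GI50 = concentration required for 50% inhibition of growth. The concentration for full growth arrest is given as TGI.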

How the values were obtained:
Experiment in all cases: DTP human tumour cell line panel, 48 h
NCI-H522 lung = tested on: NCI-H522 lung
MDA-MB-435 = tested on: MDA-MB-435
RXF 393 renal = tested on: RXF 393 renal
PC-3 prostate = tested on: PC-3 prostate
HCT-116 colon = tested on: HCT-116 colon
TK-10 renal = tested on: TK-10 renal
HCT-15 colon = tested on: HCT-15 colon
HCC-2998 colon = tested on: HCC-2998 colon
M14 melanoma = tested on: M14 melanoma
CCRF-CEM leukemia = tested on: CCRF-CEM leukemia
SK-OV-3 ovarian = tested on: SK-OV-3 ovarian
RPMI-8226 leukemia = tested on: RPMI-8226 leukemia
HOP-62 NSCLC = tested on: HOP-62 NSCLC
SW-620 colon = tested on: SW-620 colon
HOP-92 NSCLC = tested on: HOP-92 NSCLC
BT-549 breast = tested on: BT-549 breast
IGROV1 ovarian = tested on: IGROV1 ovarian
MCF7 breast = tested on: MCF7 breast
786-0 renal = tested on: 786-0 renal
SNB-19 CNS = tested on: SNB-19 CNS
SK-MEL-28 melanoma = tested on: SK-MEL-28 melanoma
SF-268 CNS = tested on: SF-268 CNS
HL-60(TB) leukemia = tested on: HL-60(TB) leukemia
MDA-MB-231 breast = tested on: MDA-MB-231 breast
CAKI-1 renal = tested on: CAKI-1 renal
KM12 colon = tested on: KM12 colon
NCI-H460 lung = tested on: NCI-H460 lung
HT29 colon = tested on: HT29 colon
HS 578T breast = tested on: HS 578T breast
OVCAR-4 ovarian = tested on: OVCAR-4 ovarian
SNB-75 CNS = tested on: SNB-75 CNS
A498 renal = tested on: A498 renal
DU-145 prostate = tested on: DU-145 prostate
U251 CNS = tested on: U251 CNS
SN12C renal = tested on: SN12C renal
T-47D breast = tested on: T-47D breast
K-562 leukemia = tested on: K-562 leukemia
UO-31 renal = tested on: UO-31 renal
SF-539 CNS = tested on: SF-539 CNS
MALME-3M melanoma = tested on: MALME-3M melanoma
LOX IMVI melanoma = tested on: LOX IMVI melanoma
OVCAR-5 ovarian = tested on: OVCAR-5 ovarian
UACC-62 melanoma = tested on: UACC-62 melanoma
MOLT-4 leukemia = tested on: MOLT-4 leukemia
EKVX NSCLC = tested on: EKVX NSCLC
COLO 205 colon = tested on: COLO 205 colon
OVCAR-8 ovarian = tested on: OVCAR-8 ovarian
NCI-H23 lung = tested on: NCI-H23 lung
NCI/ADR-RES ovarian = tested on: NCI/ADR-RES ovarian

C/C=C/C1=CN2C(=O)c3cc(OC4OC(C)C(NC)C(C)(O)C4O)c(C)cc3N=C[C@@H]2C1 (stereo partly specified)
GI50 (NCI-H522 lung): 7.62 nM
TGI (NCI-H522 lung): 30.1 nM
GI50 (MDA-MB-435): 15.8 nM
TGI (MDA-MB-435): 32 nM
GI50 (RXF 393 renal): 14 nM
TGI (RXF 393 renal): 31.5 nM
GI50 (PC-3 prostate): 44.1 nM
TGI (PC-3 prostate): 26800 nM
TGI (HCT-116 colon): 11600 nM
GI50 (TK-10 renal): 26.4 nM
TGI (TK-10 renal): 68.3 nM
GI50 (HCT-15 colon): 174 nM
TGI (HCT-15 colon): 11500 nM
GI50 (HCC-2998 colon): 58.5 nM
TGI (HCC-2998 colon): 336 nM
GI50 (M14 melanoma): 14.1 nM
TGI (M14 melanoma): 31.2 nM
GI50 (CCRF-CEM leukemia): 13 nM
TGI (SK-OV-3 ovarian): 11900 nM
GI50 (RPMI-8226 leukemia): 24.6 nM
TGI (RPMI-8226 leukemia): 94.7 nM
GI50 (HOP-62 NSCLC): 22.2 nM
TGI (HOP-62 NSCLC): 70.3 nM
GI50 (SW-620 colon): 22.4 nM
GI50 (HOP-92 NSCLC): 68.7 nM
TGI (HOP-92 NSCLC): > 100000 nM
GI50 (BT-549 breast): 19.1 nM
TGI (BT-549 breast): 40.8 nM
GI50 (IGROV1 ovarian): 30 nM
GI50 (MCF7 breast): 8.47 nM
TGI (MCF7 breast): 11900 nM
GI50 (786-0 renal): 22.6 nM
TGI (786-0 renal): 49.3 nM
GI50 (SNB-19 CNS): 30.7 nM
TGI (SNB-19 CNS): 12400 nM
GI50 (SK-MEL-28 melanoma): 22.5 nM
TGI (SK-MEL-28 melanoma): 50.8 nM
GI50 (SF-268 CNS): 21.6 nM
TGI (SF-268 CNS): 37.2 nM
GI50 (HL-60(TB) leukemia): 21.1 nM
TGI (HL-60(TB) leukemia): 101 nM
GI50 (MDA-MB-231 breast): 35.7 nM
TGI (MDA-MB-231 breast): 17100 nM
GI50 (CAKI-1 renal): 39.1 nM
GI50 (KM12 colon): 34.5 nM
TGI (KM12 colon): 544 nM
GI50 (NCI-H460 lung): 23.7 nM
GI50 (HT29 colon): 24.2 nM
TGI (HT29 colon): 66 nM
GI50 (HS 578T breast): 53.9 nM
GI50 (OVCAR-4 ovarian): 25.8 nM
GI50 (SNB-75 CNS): 15.9 nM
TGI (SNB-75 CNS): 55.5 nM
GI50 (A498 renal): 17.3 nM
TGI (A498 renal): 31.9 nM
GI50 (DU-145 prostate): 38.2 nM
TGI (DU-145 prostate): 1580 nM
GI50 (U251 CNS): 14.8 nM
TGI (U251 CNS): 245 nM and 130 nM
GI50 (SN12C renal): 33 nM
TGI (SN12C renal): 11100 nM
GI50 (T-47D breast): 24.7 nM
GI50 (K-562 leukemia): 25.8 nM
GI50 (UO-31 renal): 24 nM
TGI (UO-31 renal): 59.6 nM
GI50 (SF-539 CNS): 18.3 nM
TGI (SF-539 CNS): 137 nM
GI50 (MALME-3M melanoma): 20.1 nM
TGI (MALME-3M melanoma): 39.6 nM
GI50 (LOX IMVI melanoma): 13.3 nM
TGI (LOX IMVI melanoma): 41.5 nM
GI50 (OVCAR-5 ovarian): 43.1 nM
TGI (OVCAR-5 ovarian): 10400 nM
GI50 (UACC-62 melanoma): 16.7 nM
TGI (UACC-62 melanoma): 36.1 nM
GI50 (MOLT-4 leukemia): 12.4 nM
TGI (MOLT-4 leukemia): 178 nM
GI50 (EKVX NSCLC): 242 nM
TGI (EKVX NSCLC): 20.3 nM
GI50 (COLO 205 colon): 17.5 nM
TGI (COLO 205 colon): 41.1 nM
GI50 (OVCAR-8 ovarian): 17.9 nM
TGI (OVCAR-8 ovarian): 87 nM
GI50 (NCI-H23 lung): 19.7 nM
TGI (NCI-H23 lung): 282 nM
TGI (NCI/ADR-RES ovarian): 735 nM
